Key:
[1] = target: T1, folic acid reductase (binder factor) (Cavia porcellus, UniProt H0VYF1); experiment: Cofactor dependency of ^3H-MTX binding; design: species or system guinea pig; details: for binding of ^3H-MTX with cofactor substituted for NADPH2: 1,000 times the optimal concentration of NADPH2; for inhibition of the MTX binding reaction: NADPH2 in slight excess, until concentration reached several thousand fold excess to NADPH2
T1 construct: NADPH as cofactor
T1 sequence (H0VYF1 1-187): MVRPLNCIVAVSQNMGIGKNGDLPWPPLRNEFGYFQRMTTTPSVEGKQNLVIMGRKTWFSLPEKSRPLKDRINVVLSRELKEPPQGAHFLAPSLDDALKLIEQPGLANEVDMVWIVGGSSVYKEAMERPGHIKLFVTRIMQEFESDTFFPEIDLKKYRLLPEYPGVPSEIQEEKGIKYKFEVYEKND
Experimental: (§1) The binder factor or folic acid reductase was prepared from guinea pig liver according to the method of Bertino et al, "Dihydrofolate Reductase From Guinea Pig Liver And Small Intestine,"Biochemical Pharmacology 15, pages 563 - 571, 1966 modified as noted below. The livers from freshly killed guinea pigs were rinsed in cold isotonic saline, suspended in 3 volumes (weight/volume) of the same, and homogenized in an Omnimixer (Sorvall, Inc.) for two minutes at 90 volts. The pH of the homogenate was adjusted to 5.1 with 1.0 N HCl. The homogenate was centrifuged at 12,000 × G for 15 minutes, and the pellet was discarded.
(§2) Ammonium sulfate was added to the supernatant to 55% of saturation at 4°C and, when necessary, the pH was adjusted to 6.0 with 1.0 N KOH. After standing for 30 minutes at 4°C, the precipitate was collected by centrifugation for 15 minutes at 12,000 × G and discarded. The supernatant was brought to a final ammonium sulfate concentration of 70% of saturation, again keeping the pH at 6.0, and stored overnight at 4°C. The resultant precipitate was recovered by centrifugation, as above, and dissolved in a minimal volume of 0.01 M potassium phosphate buffer, pH 7.0, which was 0.01 M with respect to KCl. The burgundy colored solution was applied to a Sephadex G-50 column (5 × 100 cm) equilibrated in 0.01 M potassium phosphate, pH 7.0, and 0.2 M KCl; the same buffer was used for elution of the sample.
The eluted material from the column was collected in 5 ml samples, and the binder factor or folic acid reductase eluted from the column behind the excluded volume which was marked by the hemoglobin peak. Sephadex permitted a rapid removal of ammonium sulfate and also gave a partial purification of the binder. Yields of 60% to 80% of the activity present in the crude homogenate were obtained with this methodology.
The maximum binding was identical to the binding observed in the presence of 0.1 μmole NADPH2.

[2] = Endogenous MTX level in serum and CSF of patients who had received MTX; format: in vivo; details: 6 hours to 6 days after oral, parenteral or intrathecal MTX
Experimental: (§3) The samples in Table II were assayed by sequential binding procedures in accordance with the present invention, and they were assayed at multiple dilutions as previously described.

[3] = target: T1, folic acid reductase (binder factor); experiment: Direct binding of labeled folates to the binder preparation; design: species or system guinea pig; details: at the concentration of reactants used in the standard curves
Experimental: as §1
as §2, with “The burgundy colored solution was applied to a Sephadex G-50 column (5 × 100 cm) equilibrated in 0.01 M potassium phosphate, pH 7.0, and 0.2 M KCl; the same buffer was used for elution of the sample.” left out

[4] = target: T1, folic acid reductase (binder factor); experiment: Reliability, recovery and sensitivity of the radiochemical ligand binding assay for MTX in serum and cerebrospinal fluid; design: species or system guinea pig; details: presence of ascorbic acid
Experimental: as §3

[5] = target: T1, folic acid reductase (binder factor); experiment: Specificity of the binder: competition with ^3H-MTX in direct competitive and sequential binding assays; design: species or system guinea pig; details: other folate derivatives up to 200 fold excess relative to ^3H-MTX
Experimental: as §1, with “discarded. […]” for “discarded.”
At the end of the first incubation period, ^3 H-MTX was added and the incubation was continued for an additional 10 minutes. […] After centrifugation for 10 minutes at 2,000 - 3,000 × G to pellet the charcoal, the radioactivity in the clear supernatant was determined by liquid scintillation counting. […]
The specificity of the binder was determined by incubating the following compounds in direct competitive and sequential binding assays with ^3 H-MTX: pteroylmonoglutamate (Folic Acid, Nutritional Biochemicals); 5-methyltetrahydrofolic acid (Sigma Chemical Co.); 5-formyltetrahydrofolicacid (Leucovorin, Lederle Co.); adenosine, guanylic acid, para-aminobenzoylglutamate and 6-carboxypterin (Sigma Chemical Co.); pteroylheptaglutamate and aminopterin.

[6] = format: physicochemical; details: 4°C, buffer A pH 6.0 with albumin
Experimental: The assay reaction is carried out in an aqueous solution of 0.01 M potassium phosphate, 0.15 M potassium chloride, pH 6.0, hereinafter referred to as buffer A. In the assay procedure, buffer A has added thereto about 1 mg of albumin per ml and other additons as noted.
As previously indicated, a binder cofactor comprising reduced nicotinamide adenine dinucleotide phosphate or NADPH2 was added to the reaction solution in the amounts noted below at the time of the assay.

## NC(=O)C1=CN([C@@H]2O[C@H](COP(=O)(O)OP(=O)(O)OC[C@H]3O[C@@H](n4cnc5c(N)ncnc54)[C@H](O)[C@@H]3O)[C@@H](O)[C@H]2O)C=CC1 [NADH]
[1]; concentrations up to 200,000 times the optimal amount of NADPH2
  maximum binding of MTX obtained with cofactor substituted for NADPH2: 40%

## CN(Cc1cnc2nc(N)nc(N)c2n1)c1ccc(C(=O)N[C@@H](CCC(=O)O)C(=O)O)cc1 [MTX, N-[p-(2,4-diamino-6-pteridylmethyl)methylaminobenzoyl]-glutamic acid]
[2]
  Endogenous MTX, CSF: 8 Nanograms per ml

## [14CH3]N1c2c([nH]c(N)nc2=O)NCC1CNc1ccc(C(=O)N[C@@H](CCC(=O)O)C(=O)O)cc1 (some centres unmarked) [^14 C-5-methyltetrahydrofolic acid]
[3]
  binding of labeled folate by the binder preparation: did not bind

## O=C1O[C@H]([C@@H](O)CO)C(O)=C1O [ascorbic acid]
[4]
  effect on the assay: did not affect the assay

## Nc1nc2ncc(CNc3ccc(C(=O)N[C@@H](CCC(=O)O)C(=O)O)cc3)nc2c(=O)[nH]1 [^3 H-folic acid]
[3]
  binding of labeled folate by the binder preparation: did not bind

## Nc1nc(N)c2nc(CNc3ccc(C(=O)N[C@@H](CCC(=O)O)C(=O)O)cc3)cnc2n1 [aminopterin, N-{p-[(2,4-diamino-6-pteridylmethyl)amino]benzoyl}-glutamic acid]
[5]
  competition for ^3H-MTX binding sites: competed for ^3 H-MTX binding sites

## NC(=O)C1=CN([C@@H]2O[C@H](COP(=O)(O)OP(=O)(O)OC[C@H]3O[C@@H](n4cnc5c(N)ncnc54)[C@H](OP(=O)(O)O)[C@@H]3O)[C@@H](O)[C@H]2O)C=CC1 [NADPH2, reduced nicotinamide adenine dinucleotide phosphate]
[6]
  stability in buffer A with albumin: stable for several days

## NC(=O)c1ccc[n+]([C@@H]2O[C@H](COP(=O)([O-])OP(=O)(O)OC[C@H]3O[C@@H](n4cnc5c(N)ncnc54)[C@H](OP(=O)(O)O)[C@@H]3O)[C@@H](O)[C@H]2O)c1 [NADP, Nicotinamide adenine dinucleotide phosphate]
[1]
  binding of ^3H-MTX with cofactor substituted for NADPH2: did not allow binding of ^3 H-MTX
  inhibition of the MTX binding reaction: did not inhibit the binding reaction

## NC(=O)c1ccc[n+]([C@@H]2O[C@H](COP(=O)([O-])OP(=O)(O)OC[C@H]3O[C@@H](n4cnc5c(N)ncnc54)[C@H](O)[C@@H]3O)[C@@H](O)[C@H]2O)c1 [NAD, nicotinamide adenine dinucleotide]
[1]
  binding of ^3H-MTX with cofactor substituted for NADPH2: did not allow binding of ^3 H-MTX
  inhibition of the MTX binding reaction: did not inhibit the binding reaction

From patent publication US3981983A, “Rapid, radiochemical-ligand binding assay for methotrexate” (priority 1975, dated 1976)
